Laboratory results: publication PMC9756784 (Journal of Mass Spectrometry and Advances in the Clinical …, 2022)
Like-named read-outs stand apart in the source and are kept apart here.

What was measured:
[1] = plasma
[2] = for Relative stability in whole blood and plasma: whole blood versus plasma; for Length of time for which stability is assumed: whole blood
[3] = type: physicochemical; conditions: −80 °C

| Compound | Length of time for which stability is assumed ([1]; 4°C) [h 4 °C] | Length of time for which stability is assumed ([1]; RT (room temperature)) [h RT] | Length of time for which stability is assumed ([1]; −20°C, W = week) [W−20 °C] | Length of time for which stability is assumed ([1]; −80°C, M = month) [M−80 °C] | Relative stability in whole blood and plasma [2] | Length of time for which stability is assumed ([2]; 4°C) [h 4 °C] | Length of time for which stability is assumed ([2]; RT (room temperature)) [h RT] | Stock solution stable for up to [3] [months] |
| --- | --- | --- | --- | --- | --- | --- | --- | --- |
| CC(C)(O/N=C(\C(=O)N[C@@H]1C(=O)N2C(C(=O)[O-])=C(C[n+]3ccccc3)CS[C@H]12)c1csc(N)n1)C(=O)O [Ceftazidime, ceftazidime] | 8 |  |  |  |  |  |  |  |
| C[C@@H](O)[C@H]1C(=O)N2C(C(=O)O)=C(S[C@@H]3CN[C@H](C(=O)N(C)C)C3)[C@H](C)[C@H]12 [Meropenem, meropenem] | 24 | 8 | 1 | 8 | more stable in whole blood than in plasma | 48 | 8 |  |
| Cc1onc(-c2c(F)cccc2Cl)c1C(=O)N[C@@H]1C(=O)N2[C@@H]1SC(C)(C)[C@@H]2C(=O)O [Flucloxacillin, flucloxacillin] | 24 | 8 | 2 | 8 | more stable in plasma | 8 | 8 |  |
| CCN1CCN(C(=O)N[C@@H](C(=O)N[C@@H]2C(=O)N3[C@@H]2SC(C)(C)[C@@H]3C(=O)O)c2ccccc2)C(=O)C1=O [Piperacillin, piperacillin] | 24 | 5 | 1 |  |  | 48 | 24 |  |
| CO/N=C(\C(=O)N[C@@H]1C(=O)N2C(C(=O)O)=C(COC(C)=O)CS[C@H]12)c1csc(N)n1 [Cefotaxime, cefotaxime] | 48 | 8 |  | 8 |  | 48 | 24 |  |
| Cc1nnc(SCC2=C(C(=O)O)N3C(=O)[C@@H](NC(=O)Cn4cnnn4)[C@H]3SC2)s1 [Cefazolin, cefazolin] | 48 | 24 | 2 | 8 | stable in both matrices | 48 | 24 |  |
| C[C@]1(Cn2ccnn2)[C@H](C(=O)O)N2C(=O)C[C@H]2S1(=O)=O [Tazobactam, tazobactam] | 24 | 8 | 1 |  | more stable in whole blood than in plasma | 48 | 24 |  |
| CO/N=C(\C(=O)N[C@@H]1C(=O)N2C(C(=O)[O-])=C(C[N+]3(C)CCCC3)CS[C@H]12)c1csc(N)n1 [Cefepime, cefepime] | 8 | 5 | 1 | 8 |  | 48 | 24 |  |
| CC(=O)NC[C@H]1CN(c2ccc(N3CCOCC3)c(F)c2)C(=O)O1 [Linezolid, linezolid] | 48 | 24 | 2 | 8 | stable in both matrices | 48 | 24 | 20 |
